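Five concentrations, 48 hours, 96-well plates. Abbreviation: GI50, concentration required for 50% inhibition of growth. Definition used: TGI = concentration required for complete inhibition of growth.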
Columns and labels:
Assay in all cases: DTP human tumour cell line panel, 48 h
[1] = test system: ACHN renal
[2] = test system: BT-549 breast
[3] = test system: CAKI-1 renal
[4] = test system: CCRF-CEM leukemia
[5] = test system: HCT-15 colon
[6] = test system: NCI-H226 lung
[7] = test system: RPMI-8226 leukemia
[8] = test system: UO-31 renal
[9] = test system: SNB-19 CNS

O=C(Nc1ccc(-c2nc(N3CCOCC3)c3cccn3n2)cc1)Nc1cccnc1
GI50 [1]: 0.189 µM
TGI [1]: 3.64 µM
GI50 [2]: 0.145 µM
TGI [2]: 0.951 µM
GI50 [3]: 0.185 µM
TGI [3]: 3.85 µM
GI50 [4]: 0.0547 µM
TGI [4]: > 100 µM
GI50 [5]: 0.143 µM
TGI [5]: > 100 µM
GI50 [6]: 0.141 µM
TGI [6]: 1.1 µM
GI50 [7]: 0.138 µM
TGI [7]: 1.36 µM
GI50 [8]: 0.0619 µM
TGI [8]: 0.546 µM

CCN(CC)C(c1ccc(N(C)C)cc1)C(c1ccc(N(C)C)cc1)N(CC)CC (stereo unspecified)
TGI [1]: > 73 µM
TGI [3]: > 73 µM
TGI [4]: > 73 µM
TGI [5]: > 73 µM
TGI [6]: > 73 µM
TGI [7]: > 73 µM
TGI [9]: > 73 µM

COc1ccc2c(c1)C(=O)c1c-2n(CCCn2ccnc2)c(=O)c2cc([N+](=O)[O-])ccc12
GI50 [2]: < 0.0134 µM
TGI [2]: 0.744 µM
GI50 [3]: < 0.01 µM
TGI [3]: 0.366 µM
GI50 [5]: < 0.0329 µM
TGI [5]: > 100 µM
GI50 [6]: < 0.01 µM
TGI [6]: 0.584 µM
GI50 [7]: 0.0653 µM
TGI [7]: 0.515 µM
GI50 [9]: < 0.01 µM
TGI [9]: > 100 µM
GI50 [8]: < 0.01 µM
TGI [8]: 0.38 µM

COc1ccc2c(c1)[n+](=O)c(C(=O)C/C(=N/OCCCc1ccccc1)C(=O)NC13CC4CC(CC(C4)C1)C3)c(C)n2[O-]
TGI [1]: > 100 µM
TGI [3]: > 100 µM
TGI [4]: > 100 µM
TGI [5]: > 100 µM
TGI [6]: > 100 µM
TGI [7]: > 100 µM
TGI [9]: > 100 µM
TGI [8]: > 100 µM

CNC(=O)C1CCc2nnc(-c3ccccc3)n21 (stereo unspecified)
TGI [1]: > 100 µM
TGI [3]: > 100 µM
TGI [4]: > 100 µM
TGI [5]: > 100 µM
TGI [6]: > 100 µM
TGI [7]: > 100 µM
TGI [9]: > 100 µM
TGI [8]: > 100 µM

COc1ccc2nc3c(C(=O)NCCN(C)C)cccc3nc2c1
TGI [1]: > 100 µM
TGI [3]: > 100 µM
TGI [4]: > 100 µM
TGI [5]: 16.6 µM
TGI [6]: 38.6 µM
TGI [9]: 37.9 µM
TGI [8]: 47.9 µM

CC(C)(CO)N1CCN(C(=S)Nc2ccccc2)CC1
TGI [1]: > 100 µM
TGI [2]: > 100 µM
TGI [3]: > 100 µM
TGI [5]: > 100 µM
TGI [6]: > 100 µM
TGI [7]: > 100 µM
TGI [9]: > 100 µM
TGI [8]: > 100 µM

C/C(CC(=O)Nc1cc(C)ccc1C)=N\NC(=O)c1ccncc1
TGI [4]: > 100 µM
TGI [6]: > 100 µM
TGI [7]: > 100 µM
TGI [8]: > 100 µM

Nc1c(-c2ccc(Cl)cc2)[n+]([O-])c2ccccc2[n+]1[O-]
TGI [1]: > 100 µM
TGI [3]: > 100 µM
TGI [4]: > 100 µM
TGI [5]: > 100 µM
TGI [6]: > 100 µM
TGI [7]: > 100 µM
TGI [9]: > 100 µM
TGI [8]: 55.3 µM

O=C(CC1(O)C(=O)Nc2c(Cl)ccc(Cl)c21)c1ccc(F)cc1 (stereo unspecified)
TGI [1]: > 100 µM
TGI [3]: > 100 µM
TGI [4]: > 100 µM
TGI [5]: > 100 µM
TGI [6]: 79.6 µM
TGI [7]: 47.9 µM
TGI [9]: > 100 µM
TGI [8]: > 100 µM

CC(SC(=S)N1CCOCC1)c1cc2oc(=O)n(C)c2cc1Cl (stereo unspecified)
TGI [1]: > 100 µM
TGI [3]: > 100 µM
TGI [4]: > 100 µM
TGI [5]: > 100 µM
TGI [7]: > 100 µM
TGI [9]: > 100 µM
TGI [8]: > 100 µM

O=c1cc(-c2ccccc2)oc2cc(OC/C(=N/O)c3ccccc3)ccc12
GI50 [1]: 9.41 µM
TGI [1]: 20.2 µM
GI50 [2]: 12.4 µM
TGI [2]: 27.8 µM
GI50 [3]: 12.8 µM
TGI [3]: > 50 µM
GI50 [5]: 22.2 µM
TGI [5]: > 50 µM
GI50 [6]: 23.5 µM
TGI [6]: > 50 µM
GI50 [7]: 6.69 µM
TGI [7]: > 50 µM
GI50 [9]: 18.2 µM
TGI [9]: > 50 µM
GI50 [8]: 18.4 µM
TGI [8]: > 50 µM

Source: PubChem BioAssay (NCI)
